Among the data in article PMC10653881, “VirB, a key transcriptional regulator of Shigella virulence, requires a CTP ligand for its regulatory activities” (mBio, 2023) are Kd values, retold here.

For the assay, the target named is T1, VirB (VirB-His6) (Shigella flexneri, UniProt P0A247).
T1 construct: VirB with His6 tag, purified by Monserate Biotechnology Group by an earlier protocol; ParB superfamily protein encoded on the large virulence plasmid pINV; homodimer on DNA
The experiment in a line: isothermal titration calorimetry. The assay is classed as binding. Particulars: 25 °C, pH 7.6, 25 mM HEPES, 100 mM NaCl, one set of sites.

T1 sequence (P0A247 whole entry): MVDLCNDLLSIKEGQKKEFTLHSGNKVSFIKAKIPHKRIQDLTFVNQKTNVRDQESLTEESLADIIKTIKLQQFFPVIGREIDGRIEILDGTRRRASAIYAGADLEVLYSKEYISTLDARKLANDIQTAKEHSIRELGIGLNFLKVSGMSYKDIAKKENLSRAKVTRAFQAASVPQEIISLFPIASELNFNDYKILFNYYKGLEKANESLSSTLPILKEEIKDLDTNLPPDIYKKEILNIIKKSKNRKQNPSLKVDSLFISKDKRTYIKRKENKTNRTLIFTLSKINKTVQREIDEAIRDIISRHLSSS

In general, Kd refers to a measure of binding affinity in units of concentration. The low end stands for a tighter complex, the high end for a looser complex. `Nc1ccn([C@@H]2O[C@H](COP(=O)(O)OP(=O)(O)OP(=O)(O)O)[C@@H](O)[C@H]2O)c(=O)n1` [CTP] came in with a Kd (5 mM MgCl2, 45 µM VirB-His6, no DNA) of 9.3 ± 0.4 µM.
Molecule `Nc1ccn([C@@H]2O[C@H](COP(=O)(O)OP(=O)(O)OP(O)(O)=S)[C@@H](O)[C@H]2O)c(=O)n1` [CTPγS] came in with a Kd (5 mM MgCl2, 90 µM VirB-His6 (not fully saturated after 13 injections), no DNA) of 14.3 ± 0.5 µM.
